# PubChem BioAssay AID2060612 (Molecular Pharmacology Branch, DTP, NCI, 2025)
# System: 565232-114-T-J1-PDC complex spheroid viability
# Assay: Anticancer human tumor 565232-114-T-J1-PDC patient-derived bladder carcinoma cell line growth inhibition [CLK]
# Conditions: for IC50: curve of first compound; for viability, T/C: stronger effect = lower value
# Method in brief: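 Multi-cell-type spheroids combined patient-derived tumor cells with HUVEC endothelial cells and human mesenchymal stem cells. Paired agents were dosed in half-log steps down from about clinical Cmax, or from 10 microM where Cmax was unknown.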
# 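Also: spheroids exposed to compounds for 7 days before readout.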
# 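For viability, T/C in this document: 100% = DMSO vehicle wells with luminescence normalized to vehicle control.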
structure (smiles),measurement,setting,value
CC(C)CC(NC(=O)C(Cc1ccccc1)NC(=O)c1cnccn1)B(O)O (centres undefined) + CN1CCN(c2cc(C(=O)Nc3cc4cc(-c5cnn(C)c5)ccc4cn3)ccn2)CC1,IC50,second compound 0.0316 µM,5.73 nM
same,IC50,second compound 0.1 µM,6.17 nM
same,IC50,second compound 0.316 µM,< 0.949 nM
same,IC50,second compound 1 µM,< 0.949 nM
same,IC50,second compound 3.16 µM,< 0.949 nM
same,IC50,second compound 10 µM,< 0.949 nM
same,"viability, T/C","second compound 0.0316 µM, first compound 0.000949 µM",120%
same,"viability, T/C","second compound 0.0316 µM, first compound 0.003 µM",109%
same,"viability, T/C","second compound 0.0316 µM, first compound 0.00949 µM",4.38%
same,"viability, T/C","second compound 0.0316 µM, first compound 0.03 µM",1.43%
same,"viability, T/C","second compound 0.0316 µM, first compound 0.0949 µM",1.54%
same,"viability, T/C","second compound 0.0316 µM, first compound 0.3 µM",1.27%
same,"viability, T/C","second compound 0.1 µM, first compound 0.000949 µM",129%
same,"viability, T/C","second compound 0.1 µM, first compound 0.003 µM",133%
same,"viability, T/C","second compound 0.1 µM, first compound 0.00949 µM",2.13%
same,"viability, T/C","second compound 0.1 µM, first compound 0.03 µM",1.8%
same,"viability, T/C","second compound 0.1 µM, first compound 0.0949 µM",1.71%
same,"viability, T/C","second compound 0.1 µM, first compound 0.3 µM",1.6%
same,"viability, T/C","second compound 0.316 µM, first compound 0.000949 µM",23.8%
same,"viability, T/C","second compound 0.316 µM, first compound 0.003 µM",25.9%
same,"viability, T/C","second compound 0.316 µM, first compound 0.00949 µM",3.56%
same,"viability, T/C","second compound 0.316 µM, first compound 0.03 µM",1.36%
same,"viability, T/C","second compound 0.316 µM, first compound 0.0949 µM",1.26%
same,"viability, T/C","second compound 0.316 µM, first compound 0.3 µM",0.65%
same,"viability, T/C","second compound 1 µM, first compound 0.000949 µM",0.22%
same,"viability, T/C","second compound 1 µM, first compound 0.003 µM",3%
same,"viability, T/C","second compound 1 µM, first compound 0.00949 µM",1.91%
same,"viability, T/C","second compound 1 µM, first compound 0.03 µM",0.18%
same,"viability, T/C","second compound 1 µM, first compound 0.0949 µM",2.19%
same,"viability, T/C","second compound 1 µM, first compound 0.3 µM",2.68%
same,"viability, T/C","second compound 3.16 µM, first compound 0.000949 µM",0.16%
same,"viability, T/C","second compound 3.16 µM, first compound 0.003 µM",1.18%
same,"viability, T/C","second compound 3.16 µM, first compound 0.00949 µM",0.21%
same,"viability, T/C","second compound 3.16 µM, first compound 0.03 µM",0.14%
same,"viability, T/C","second compound 3.16 µM, first compound 0.0949 µM",0.16%
same,"viability, T/C","second compound 3.16 µM, first compound 0.3 µM",1.81%
same,"viability, T/C","second compound 10 µM, first compound 0.000949 µM",0.1%
same,"viability, T/C","second compound 10 µM, first compound 0.003 µM",3.27%
same,"viability, T/C","second compound 10 µM, first compound 0.00949 µM",3.03%
same,"viability, T/C","second compound 10 µM, first compound 0.03 µM",0.17%
same,"viability, T/C","second compound 10 µM, first compound 0.0949 µM",1.45%
same,"viability, T/C","second compound 10 µM, first compound 0.3 µM",0.23%
CC1(C)CCC(CN2CCN(c3ccc(C(=O)NS(=O)(=O)c4ccc(NCC5CCOCC5)c([N+](=O)[O-])c4)c(Oc4cnc5[nH]ccc5c4)c3)CC2)=C(c2ccc(Cl)cc2)C1 + CN1CCN(c2cc(C(=O)Nc3cc4cc(-c5cnn(C)c5)ccc4cn3)ccn2)CC1,IC50,second compound 0.0316 µM,9100 nM
same,IC50,second compound 0.1 µM,8010 nM
same,IC50,second compound 0.316 µM,< 31.6 nM
same,IC50,second compound 1 µM,< 31.6 nM
same,IC50,second compound 3.16 µM,< 31.6 nM
same,IC50,second compound 10 µM,< 31.6 nM
same,"viability, T/C","second compound 0.0316 µM, first compound 0.0316 µM",104%
same,"viability, T/C","second compound 0.0316 µM, first compound 0.1 µM",89%
same,"viability, T/C","second compound 0.0316 µM, first compound 0.316 µM",98.6%
same,"viability, T/C","second compound 0.0316 µM, first compound 1 µM",95.9%
same,"viability, T/C","second compound 0.0316 µM, first compound 3.16 µM",79.5%
same,"viability, T/C","second compound 0.0316 µM, first compound 10 µM",47.4%
same,"viability, T/C","second compound 0.1 µM, first compound 0.0316 µM",88.2%
same,"viability, T/C","second compound 0.1 µM, first compound 0.1 µM",79.3%
same,"viability, T/C","second compound 0.1 µM, first compound 0.316 µM",95.1%
same,"viability, T/C","second compound 0.1 µM, first compound 1 µM",119%
same,"viability, T/C","second compound 0.1 µM, first compound 3.16 µM",82.2%
same,"viability, T/C","second compound 0.1 µM, first compound 10 µM",42.3%
same,"viability, T/C","second compound 0.316 µM, first compound 0.0316 µM",13.7%
same,"viability, T/C","second compound 0.316 µM, first compound 0.1 µM",18.3%
same,"viability, T/C","second compound 0.316 µM, first compound 0.316 µM",18.5%
same,"viability, T/C","second compound 0.316 µM, first compound 1 µM",17.6%
same,"viability, T/C","second compound 0.316 µM, first compound 3.16 µM",22.8%
same,"viability, T/C","second compound 0.316 µM, first compound 10 µM",11.4%
same,"viability, T/C","second compound 1 µM, first compound 0.0316 µM",1.1%
same,"viability, T/C","second compound 1 µM, first compound 0.1 µM",0.27%
same,"viability, T/C","second compound 1 µM, first compound 0.316 µM",0.22%
same,"viability, T/C","second compound 1 µM, first compound 1 µM",0.2%
same,"viability, T/C","second compound 1 µM, first compound 3.16 µM",0.21%
same,"viability, T/C","second compound 1 µM, first compound 10 µM",0.31%
same,"viability, T/C","second compound 3.16 µM, first compound 0.0316 µM",0.35%
same,"viability, T/C","second compound 3.16 µM, first compound 0.1 µM",2.16%
same,"viability, T/C","second compound 3.16 µM, first compound 0.316 µM",1.93%
same,"viability, T/C","second compound 3.16 µM, first compound 1 µM",0.23%
same,"viability, T/C","second compound 3.16 µM, first compound 3.16 µM",1.8%
same,"viability, T/C","second compound 3.16 µM, first compound 10 µM",1.49%
same,"viability, T/C","second compound 10 µM, first compound 0.0316 µM",0.16%
same,"viability, T/C","second compound 10 µM, first compound 0.1 µM",1.55%
same,"viability, T/C","second compound 10 µM, first compound 0.316 µM",1.55%
same,"viability, T/C","second compound 10 µM, first compound 1 µM",0.15%
same,"viability, T/C","second compound 10 µM, first compound 3.16 µM",0.15%
same,"viability, T/C","second compound 10 µM, first compound 10 µM",0.8%
